Structures are written as SMILES. A value given as a limit tells only on which side of the number the result lay.

The target in one assay is CBR. As to the kind of experiment: In vitro CBR binding, displacement of [3H]flunitrazepam. Particulars: for Ki: displacement of [3H]flunitrazepam from rat cerebrocortical samples, mean of three experiments in duplicate. On the set-up: species or system rat. The method, then: Binding affinity and selectivity to the 18-kDa translocator protein TSPO and to CBR were assessed using in vitro receptor binding assays. These experiments were carried out as described by Denora et al[34].

For assay [1], the target named is T1, TSPO (Rattus norvegicus, UniProt P16257). Particulars: ratio of Ki values, higher affinity of CB251.
T1 sequence (P16257 whole entry): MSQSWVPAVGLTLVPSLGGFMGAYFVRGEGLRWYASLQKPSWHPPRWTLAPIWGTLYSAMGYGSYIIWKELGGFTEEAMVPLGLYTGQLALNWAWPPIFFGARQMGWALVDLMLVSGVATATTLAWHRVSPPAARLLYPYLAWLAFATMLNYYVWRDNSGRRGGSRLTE
In assay [2] the target is T1, TSPO. In words: biochemical.
For assay [3], the target named is TSPO. On the set-up: method as in PMID 19948230. The conditions noted are these: literature value ref 25; cited from earlier work.

What is called Ki is a measure of affinity in units of concentration, obtained from inhibition or displacement. For the compound `CCCN(CCC)C(=O)Cc1c(-c2ccc(OCCF)cc2)nc2c(Cl)cc(Cl)cn12` [CB251, 2-(2-(4-(2-Fluoroethoxy)phenyl)-6,8-dichloroimidazo[1,2-a]pyridin-3-yl)-N,N-dipropylacetamide], the inhibition constant Ki is > 100000 nM on CBR and 0.27 ± 0.09 nM on TSPO [2]. Further, the “binding to CBR” value in the assay on CBR (result in words) is given as “below the detection limit”. For the same compound, the “TSPO binding affinity relative to PK 11195” value at TSPO [1] came out at 5 times. Moreover, the “TSPO binding affinity relative to PBR28” value on TSPO [1] (PBR28 Ki from ref 25) is listed as 22 times.
With `COc1ccccc1CN(C(C)=O)c1cnccc1Oc1ccccc1` [PBR28], on TSPO [3], the inhibition constant Ki was 6.1 ± 6.4 nM.
As to `CCC(C)N(C)C(=O)c1cc2ccccc2c(-c2ccccc2Cl)n1` (centres unmarked) [PK 11195, reference compound], at CBR, the inhibition constant Ki is > 100000 nM.
`CN1C(=O)CN=C(c2ccccc2F)c2cc([N+](=O)[O-])ccc21` [flunitrazepam, reference compound] gave a Ki on CBR of 5.11 ± 0.87 nM.

The values are drawn from article PMC4745082, “A Novel PET Imaging Probe for the Detection and Monitoring of Translocator Protein 18 kDa Expression in Pathological Disorders” (Scientific Reports, 2016).
